One assay has as its target T1, rat Y2 receptor (Rattus norvegicus, UniProt Q9ERC0).
T1 construct: membranes from rat or mouse hippocampus were prepared; from tissue; host or cells: rat hippocampus membranes
T1 sequence (Q9ERC0 1-381): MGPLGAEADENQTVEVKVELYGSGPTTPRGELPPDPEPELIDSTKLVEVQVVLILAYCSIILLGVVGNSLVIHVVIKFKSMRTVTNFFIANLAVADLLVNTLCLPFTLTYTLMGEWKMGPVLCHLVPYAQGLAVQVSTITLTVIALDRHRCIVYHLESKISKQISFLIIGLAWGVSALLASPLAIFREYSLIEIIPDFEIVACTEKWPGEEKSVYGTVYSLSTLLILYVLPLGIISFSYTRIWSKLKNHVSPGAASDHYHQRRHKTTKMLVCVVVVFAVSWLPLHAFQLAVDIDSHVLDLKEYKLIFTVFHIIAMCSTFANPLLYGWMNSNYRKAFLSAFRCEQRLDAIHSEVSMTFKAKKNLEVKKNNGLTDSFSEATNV
In words: Neuropeptide Y2 radioligand binding assay, [125I]PYY, rat hippocampus membranes. As to conditions: read-out: rY2 pKi (converted). The protocol: Radioligand binding assays for the human and rat/mouse Y2 receptor were performed as described in Bonaventure, P., D. Nepomuceno, C. Mazur, B. Lord, D. A. Rudolph, J. A. Jablonowski, N. I. Carruthers and T. W. Lovenberg, J Pharmacol Exp Ther. 2004, 308, 1130.
KAN-Ts endogenously expressing Y2 receptors were used, for the rat and mouse Y2 receptor, membranes from rat or mouse hippocampus were prepared. Membranes were incubated with [^125I]PYY (80 pM) in the presence or absence of test compound for 1 h at rt. The reaction was stopped by filtration through GF/C filter plates pre-soaked in 0.3% polyethylenimine and subsequently washed with Tris-HCl, 50 mM, 5 mM EDTA buffer. Plates were dried for 1 h in a 55° C. oven, scintillation fluid was added and the radioactivity was counted in a Packard TopCount. Specific binding to the NPY receptor subtypes was determined by radioactivity that was bound in the presence of 1 μM NPY.
Apparent Ki values were calculated as K=IC50/(1+C/KD), where C is concentration of the radioligand and pKi=−log Ki. Data presented below are expressed as mean±S.E.M.

The next assay concerns the target MTP (Homo sapiens, UniProt P55157). The assay can be described thus: MTP assay (triglyceride transfer between vesicles). Type of assay: biochemical. The note with it: read-out: MTP pIC50 (converted). The protocol: MTP activity was measured using an assay similar to one described by J. R. Wetterau and D. B. Zilversmit in Chemistry and Physics of Lipids (1985) 38, 205-222.
In order to prepare the donor and acceptor vesicles, the appropriate lipids in chloroform were put into a glass test tube and dried under a stream of nitrogen. A buffer containing 15 mM Tris-HCl (pH 7.5), 1 mM ethylenediamine tetra-acetic acid, 40 mM NaCl, 0.02% NaN3 (assay buffer) was added to the dried lipid. The mixture was vortexed briefly and the lipids were then allowed to hydrate for 20 minutes on ice. Vesicles were then prepared by bath sonication (using a Branson 2200 device) at room temperature for at most 15 minutes. Butylated hydroxytoluene was included in all vesicle preparations at a concentration of 0.1%. The lipid transfer assay mixture contained donor vesicles (40 nmole phosphatidylcholine, 7.5 mole % cardiolipin and 0.25 mole % glycerol tri[1-^14C]-oleate), acceptor vesicles (240 nmol phosphatidylcholine) and 5 mg bovine serum albumin in a total volume of 675 μl in a 1.5 ml microcentrifuge tube. Test compound was added dissolved in dimethylsulfoxide (0.13% final concentration). After 5 minutes of pre-incubation at 37° C., the reaction was started by the addition of MTP in 100 μl of a dialysis buffer. The reaction was stopped by the addition of 400 μl […] (DEAE)-52 cellulose (Sephadex) pre-equilibrated in 15 mM Tris-HCl (pH 7.5), 1 mM ethylenediamine tetra-acetic acid and 0.02% NaN3 (1:1 volume/volume). The mixture was agitated for 4 minutes and centrifuged for 2 minutes at maximum speed in an Eppendorf centrifuge (4° C.) to pellet the DEAE-52-bound donor vesicles. An aliquot of the supernatant containing the acceptor liposomes was counted and the [^14C]-counts were used to calculate the percent triglyceride transfer from donor to acceptor vesicles.
Representative compounds of the present invention were measured for binding against the MTP receptor, as described above, with results as listed in Table 2 below.

SMILES strings stand for the structures.

Chain of MTP (P55157 19-894, species assumed): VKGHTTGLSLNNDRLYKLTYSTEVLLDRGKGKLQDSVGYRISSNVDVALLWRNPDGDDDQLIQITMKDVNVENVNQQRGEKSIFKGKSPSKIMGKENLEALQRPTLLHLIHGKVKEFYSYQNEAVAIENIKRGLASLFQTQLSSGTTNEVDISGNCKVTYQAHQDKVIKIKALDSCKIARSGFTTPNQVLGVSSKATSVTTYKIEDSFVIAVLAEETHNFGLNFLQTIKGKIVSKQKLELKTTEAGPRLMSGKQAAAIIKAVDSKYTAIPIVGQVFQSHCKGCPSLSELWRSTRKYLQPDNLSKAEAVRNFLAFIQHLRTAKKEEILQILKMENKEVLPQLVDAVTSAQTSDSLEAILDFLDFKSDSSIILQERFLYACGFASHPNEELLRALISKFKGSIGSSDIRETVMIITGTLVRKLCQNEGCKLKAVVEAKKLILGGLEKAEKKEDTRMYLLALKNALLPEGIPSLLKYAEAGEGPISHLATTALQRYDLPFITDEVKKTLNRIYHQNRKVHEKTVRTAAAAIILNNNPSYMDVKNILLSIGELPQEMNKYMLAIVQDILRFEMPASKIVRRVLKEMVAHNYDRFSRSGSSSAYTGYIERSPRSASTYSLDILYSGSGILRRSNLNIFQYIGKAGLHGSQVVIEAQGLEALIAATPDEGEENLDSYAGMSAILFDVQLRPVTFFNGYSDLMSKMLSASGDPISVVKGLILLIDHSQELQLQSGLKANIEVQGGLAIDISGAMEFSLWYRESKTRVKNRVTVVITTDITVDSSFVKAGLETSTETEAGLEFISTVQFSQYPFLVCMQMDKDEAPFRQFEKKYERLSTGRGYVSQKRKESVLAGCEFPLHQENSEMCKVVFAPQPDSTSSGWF
Chain of MTP (P07237 18-508 partner, species assumed): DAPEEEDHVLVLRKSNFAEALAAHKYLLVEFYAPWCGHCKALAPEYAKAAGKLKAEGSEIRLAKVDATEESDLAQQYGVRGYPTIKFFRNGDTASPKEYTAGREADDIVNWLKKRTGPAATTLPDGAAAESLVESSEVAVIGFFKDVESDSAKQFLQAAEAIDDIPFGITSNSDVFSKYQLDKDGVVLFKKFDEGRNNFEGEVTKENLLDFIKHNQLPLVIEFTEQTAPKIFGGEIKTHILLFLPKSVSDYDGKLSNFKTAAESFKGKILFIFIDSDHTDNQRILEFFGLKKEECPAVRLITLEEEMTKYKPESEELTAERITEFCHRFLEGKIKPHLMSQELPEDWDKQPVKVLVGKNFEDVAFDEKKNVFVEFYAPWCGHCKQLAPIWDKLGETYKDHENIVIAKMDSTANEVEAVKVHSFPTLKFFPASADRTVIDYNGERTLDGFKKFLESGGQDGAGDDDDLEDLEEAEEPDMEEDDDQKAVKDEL

As for `CCN(CC)C(=O)C(c1ccccc1)N1CCN(c2ccc(NC(=O)c3ccccc3-c3cccnc3)cc2F)CC1` (racemic) [Cmpd (A), N-{4-[4-(Diethylcarbamoyl-phenyl-methyl)-piperazin-1-yl]-3-fluoro-phenyl}-2-pyridin-3-yl-benzamide], at rat Y2 receptor, the Ki was 4.57 nM. Besides, the IC50 at MTP is 794 nM.

Source of the values: US8338426B2, “Piperazinyl derivatives useful as modulators of the neuropeptide Y2 receptor” (Janssen Pharmaceutica NV, priority 2007, dated 2012).
